This experiment addresses human NAMPT (Homo sapiens, UniProt P43490). Put plainly: Human recombinant enzyme assay (NMN fluorescence biochemical assay, activation of NAMPT). Put shortly: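 NMN production is detected fluorometrically (Ex 355/Em 460 nm) 40 min after acetophenone, KOH and formic acid derivatization. Reactions ran 60 min at ambient temperature: 6 nM human NAMPT, nicotinamide 150 μM, PRPP 20 μM, ATP 2.5 mM, buffered at pH 7.2 with 50 mM HEPES plus DTT, CHAPS, NaCl and 100 mM MgCl2.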

Where [1] appears, read: Table A, human recombinant NAMPT, NMN formation, 60 min.
Setting [2] is: Table A, human recombinant NAMPT, NMN formation, 60 min, read-out: EC50 Human.

Read-outs that look alike come from different tables or passages of the source.

Chain of human NAMPT (P43490 whole entry): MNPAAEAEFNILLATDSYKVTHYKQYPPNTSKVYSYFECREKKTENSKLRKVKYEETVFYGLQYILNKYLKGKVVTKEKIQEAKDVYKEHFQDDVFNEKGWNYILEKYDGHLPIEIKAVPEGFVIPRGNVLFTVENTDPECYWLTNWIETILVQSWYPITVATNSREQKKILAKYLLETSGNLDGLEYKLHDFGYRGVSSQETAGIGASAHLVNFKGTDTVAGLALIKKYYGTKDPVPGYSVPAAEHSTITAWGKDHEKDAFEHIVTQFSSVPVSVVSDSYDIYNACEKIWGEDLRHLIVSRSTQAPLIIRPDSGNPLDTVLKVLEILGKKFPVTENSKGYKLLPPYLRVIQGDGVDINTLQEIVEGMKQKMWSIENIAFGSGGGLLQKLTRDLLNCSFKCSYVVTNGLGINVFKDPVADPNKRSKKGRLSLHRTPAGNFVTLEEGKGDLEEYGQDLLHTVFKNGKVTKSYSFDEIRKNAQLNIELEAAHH

In the case of `COc1ccc(CNC(=O)NC2CC3(C2)CN(S(=O)(=O)CCc2ccccc2Cl)C3)cc1` [Compound 118, 1-(2-((2-chlorophenethyl)sulfonyl)-2-azaspiro[3.3]heptan-6-yl)-3-(4-methoxybenzyl)urea], the “AC1.4 Human” value under setting [1] was determined as 3.0 µM. Under setting [2], the EC50 (commonly the concentration giving half of the maximal effect) came to 14.2 µM.
For `O=C(NCc1ccc(Cl)cc1)NC1CC2(C1)CC(N(Cc1ccccc1)Cc1ccccc1)C2` (centres unmarked) [Compound 119, 1-(4-chlorobenzyl)-3-(6-(dibenzylamino)spiro[3.3]heptan-2-yl)urea], under setting [1], the “AC1.4 Human” value came out at 3.8 µM. Moreover, the EC50 under setting [2] amounted to 16.7 µM.
Regarding `COc1ccc(CNC(=O)NC2CC3(C2)CC(C(=O)N2CCN(C(C)C)CC2)C3)cc1` (centres unmarked) [Compound 122, 1-(6-(4-isopropylpiperazine-1-carbonyl)spiro[3.3]heptan-2-yl)-3-(4-methoxybenzyl)urea], under setting [1], the “AC1.4 Human” value came to 5.9 µM. Moreover, under setting [2], the EC50 is 47.6 µM.
With `COc1ccc(CNC(=O)NC2CC3(C2)CC(C(=O)N2CCN(Cc4cnn(C)c4)CC2)C3)cc1` (centres unmarked) [Compound 123, 1-(4-methoxybenzyl)-3-(6-(4-((1-methyl-1H-pyrazol-4-yl)methyl)piperazine-1-carbonyl)spiro[3.3]heptan-2-yl)urea], under setting [1], the “AC1.4 Human” value was 2.8 µM. For the same compound, under setting [2], the EC50 came to 51.5 µM.
On to `COc1ccc(CNC(=O)NC2CC3(C2)CC(C(=O)N2CCN(Cc4ccncc4)CC2)C3)cc1` (centres unmarked) [Compound 124, 1-(4-methoxybenzyl)-3-(6-(4-(pyridin-4-ylmethyl)piperazine-1-carbonyl)spiro[3.3]heptan-2-yl)urea], for which the “AC1.4 Human” value under setting [1] came to 1.3 µM. Moreover, the EC50 under setting [2] turned out to be 24.9 µM.
As to `COc1ccc(CNC(=O)NC2CC3(C2)CC(C(=O)N2CCN(Cc4ccccn4)CC2)C3)cc1` (centres unmarked) [Compound 125, 1-(4-methoxybenzyl)-3-(6-(4-(pyridin-2-ylmethyl)piperazine-1-carbonyl)spiro[3.3]heptan-2-yl)urea], the “AC1.4 Human” value under setting [1] was 7.9 µM. Besides, the EC50 under setting [2] was determined as 51.2 µM.
Turning to `COc1ccc(CNC(=O)NC2CC3(CC(CN4CCCc5c(F)cc(F)cc54)C3)C2)cc1` (centres unmarked) [Compound 127, 1-(6-((5,7-difluoro-3,4-dihydroquinolin-1(2H)-yl)methyl)spiro[3.3]heptan-2-yl)-3-(4-methoxybenzyl)urea], the “AC1.4 Human” value under setting [1] turned out to be 1.4 µM. The EC50 under setting [2] amounted to 33.1 µM.
As to `COc1ccc(CNC(=O)NC2CC3(CC(CN4CCc5ccccc54)C3)C2)cc1` (centres unmarked) [Compound 128, 1-(6-(indolin-1-ylmethyl)spiro[3.3]heptan-2-yl)-3-(4-methoxybenzyl)urea], the “AC1.4 Human” value under setting [1] worked out at 0.6 µM. For the same compound, under setting [2], the concentration giving a half-maximal response (EC50) turned out to be 20.8 µM.
Take `COc1ccc(CNC(=O)NC2CC3(CC(CN4Cc5ccccc5C4)C3)C2)cc1` (centres unmarked) [Compound 129, 1-(6-(isoindolin-2-ylmethyl)spiro[3.3]heptan-2-yl)-3-(4-methoxybenzyl)urea]: the “AC1.4 Human” value under setting [1] came out at 7.3 µM. Moreover, the EC50 under setting [2] came to 30.2 µM.
Take `COc1ccc(CNC(=O)NC2CC3(C2)CN(S(=O)(=O)C2CC4CCC2C4)C3)cc1` (centres unmarked) [Compound 130, 1-(2-(bicyclo[2.2.1]heptan-2-ylsulfonyl)-2-azaspiro[3.3]heptan-6-yl)-3-(4-methoxybenzyl)urea]: the “AC1.4 Human” value under setting [1] turned out to be 18.1 µM. Also, under setting [2], the EC50 was 48 µM.
On the same counts, the results for `COC(=O)C1CCC(S(=O)(=O)N2CC3(CC(NC(=O)NCc4ccc(OC)cc4)C3)C2)CC1` (centres unmarked) [Compound 131, methyl 4-((6-(3-(4-methoxybenzyl)ureido)-2-azaspiro[3.3]heptan-2-yl)sulfonyl)cyclohexane-1-carboxylate] are 17.6 µM and 48.5 µM.
Regarding `COc1ccc(CNC(=O)NC2CC3(C2)CN(C(=O)Nc2cccc(C#N)n2)C3)cc1` [Compound 132, N-(6-cyanopyridin-2-yl)-6-(3-(4-methoxybenzyl)ureido)-2-azaspiro[3.3]heptane-2-carboxamide], the EC50 turned out to be 42.8 µM. In addition, under setting [1], the “AC1.4 Human” value was determined as 15.0 µM.
For the compound `COc1ccc(CNC(=O)NC2CC3(C2)CN(C(=O)Nc2cnc(C)nc2)C3)cc1` [Compound 133, 6-(3-(4-methoxybenzyl)ureido)-N-(2-methylpyrimidin-5-yl)-2-azaspiro[3.3]heptane-2-carboxamide], under setting [1], the “AC1.4 Human” value was determined as 17.5 µM. In addition, the EC50 under setting [2] came out at 61.2 µM.
Turning to `COc1ccc(CNC(=O)NC2CC3(C2)CN(C(=O)CCc2ccccc2Cl)C3)cc1` [Compound 135, 1-(2-(3-(2-chlorophenyl)propanoyl)-2-azaspiro[3.3]heptan-6-yl)-3-(4-methoxybenzyl) urea], the EC50 turned out to be 38.5 µM. Further, the “AC1.4 Human” value under setting [1] was 3.7 µM.
For `COc1ccc(CNC(=O)NC2CC3(C2)CN(C(=O)C2CCCN(C(=O)OC(C)(C)C)C2)C3)cc1` (centres unmarked) [Compound 136, tert-butyl 3-(6-(3-(4-methoxybenzyl)ureido)-2-azaspiro[3.3]heptane-2-carbonyl)piperidine-1-carboxylate], the “AC1.4 Human” value under setting [1] was 9.8 µM. In addition, the EC50 under setting [2] stood at 57.7 µM.
On to `COc1ccc(CNC(=O)NC2CC3(C2)CN(C(=O)C2CCCc4ccccc42)C3)cc1` (centres unmarked) [Compound 137, 1-(4-methoxybenzyl)-3-(2-(1,2,3,4-tetrahydronaphthalene-1-carbonyl)-2-azaspiro[3.3]heptan-6-yl)urea], for which, under setting [1], the “AC1.4 Human” value was determined as 13.8 µM. Under setting [2], the EC50 is 53.3 µM.
For `COc1ccc(CNC(=O)NC2CC3(C2)CN(C(=O)c2ccncc2)C3)cc1` [Compound 139, 1-(2-isonicotinoyl-2-azaspiro[3.3]heptan-6-yl)-3-(4-methoxybenzyl)urea] the same measures were 16.4 µM and 44.9 µM.
With `COc1ccc(CNC(=O)NC2CC3(C2)CN(C(=O)c2ccccc2)C3)cc1` [Compound 141, 1-(2-benzoyl-2-azaspiro[3.3]heptan-6-yl)-3-(4-methoxybenzyl)urea], the “AC1.4 Human” value under setting [1] amounted to 4.7 µM. Also, under setting [2], the EC50 amounted to 49.4 µM.
Turning to `COc1ccc(CNC(=O)NC2CC3(C2)CN(C(=O)C(C)(C)c2ccccc2)C3)cc1` [Compound 142, 1-(4-methoxybenzyl)-3-(2-(2-methyl-2-phenylpropanoyl)-2-azaspiro[3.3]heptan-6-yl)urea], the “AC1.4 Human” value under setting [1] came out at 1.8 µM. Also, the EC50 under setting [2] was 33.3 µM.
Take `COc1ccc(CNC(=O)NC2CC3(C2)CN(C(=O)C2(c4ccccc4)CC2)C3)cc1` [Compound 143, 1-(4-methoxybenzyl)-3-(2-(1-phenylcyclopropane-1-carbonyl)-2-azaspiro[3.3]heptan-6-yl)urea]: under setting [1], the “AC1.4 Human” value stood at 8.0 µM. Further, the EC50 under setting [2] was 45.6 µM.
For the compound `COc1ccc(CNC(=O)NC2CC3(C2)CN(C(=O)c2ccc(=O)n(C)c2)C3)cc1` [Compound 144, 1-(4-methoxybenzyl)-3-(2-(1-methyl-6-oxo-1,6-dihydropyridine-3-carbonyl)-2-azaspiro[3.3]heptan-6-yl)urea], the “AC1.4 Human” value under setting [1] was 16.0 µM. For the same compound, the 50% effective concentration (EC50) under setting [2] turned out to be 54 µM.
As to `COc1ccc(CNC(=O)NC2CC3(C2)CN(C(=O)c2cccc(C)c2)C3)cc1` [Compound 146, 1-(4-methoxybenzyl)-3-(2-(3-methylbenzoyl)-2-azaspiro[3.3]heptan-6-yl)urea], the “AC1.4 Human” value under setting [1] turned out to be 4.1 µM. Under setting [2], the EC50 is 38.7 µM.
In the case of `COc1ccc(CNC(=O)NC2CC3(C2)CN(C(=O)c2ccc(C(F)(F)F)cc2)C3)cc1` [Compound 147, 1-(4-methoxybenzyl)-3-(2-(4-(trifluoromethyl)benzoyl)-2-azaspiro[3.3]heptan-6-yl)urea], the “AC1.4 Human” value under setting [1] amounted to 5.8 µM. The EC50 under setting [2] was 58.2 µM.
Regarding `COc1ccc(CNC(=O)NC2CC3(C2)CN(C(=O)c2ccccc2C)C3)cc1` [Compound 148, 1-(4-methoxybenzyl)-3-(2-(2-methylbenzoyl)-2-azaspiro[3.3]heptan-6-yl)urea], the “AC1.4 Human” value under setting [1] stood at 3.9 µM. Besides, under setting [2], the EC50 worked out at 47.1 µM.
For `COc1ccc(CNC(=O)NCCCCCCOc2ccccc2)cc1` [Compound 150, 1-(4-methoxybenzyl)-3-(6-phenoxyhexyl)urea] the same measures were 2.0 µM and 5.3 µM.
Regarding `CC(C)(C)OC(=O)N1CC[C@]2(C1)C[C@@H](NC(=O)NCc1ccc(Cl)cc1)C2` [Compound 151, tert-butyl (2r,4s)-2-(3-(4-chlorobenzyl)ureido)-6-azaspiro[3.4]octane-6-carboxylate], the “AC1.4 Human” value under setting [1] came to 6.8 µM. In addition, the EC50 under setting [2] amounted to 41.2 µM.
As for `CC(C)(C)OC(=O)N1CC[C@]2(C1)C[C@H](NC(=O)NCc1ccc(Cl)cc1)C2` [Compound 152, tert-butyl (2s,4r)-2-(3-(4-chlorobenzyl)ureido)-6-azaspiro[3.4]octane-6-carboxylate], under setting [1], the “AC1.4 Human” value is 7.9 µM. Moreover, the EC50 under setting [2] was found to be 38.3 µM.
On the same counts, the results for `COc1ccc(CNC(=O)NC2CC3(C2)CN(C(=O)C(C)(C)c2ccc(C)cc2)C3)cc1` [Compound 153, 1-(4-methoxybenzyl)-3-(2-(2-methyl-2-(p-tolyl)propanoyl)-2-azaspiro[3.3]heptan-6-yl)urea] are 2.3 µM and 26.3 µM.
As for `COc1ccc(CNC(=O)NC2CC3(C2)CN(C(=O)C(C)(C)c2cccc(C)c2)C3)cc1` [Compound 154, 1-(4-methoxybenzyl)-3-(2-(2-methyl-2-(m-tolyl)propanoyl)-2-azaspiro[3.3]heptan-6-yl)urea], under setting [1], the “AC1.4 Human” value worked out at 2.1 µM. Also, the EC50 under setting [2] was found to be 31 µM.
For the compound `COc1ccc(CNC(=O)NC2CC3(C2)CN(C(=O)c2ccc(OC)cc2)C3)cc1` [Compound 155, 1-(2-(4-methoxybenzoyl)-2-azaspiro[3.3]heptan-6-yl)-3-(4-methoxybenzyl)urea], the “AC1.4 Human” value under setting [1] came to 2.7 µM. The EC50 under setting [2] was determined as 52.1 µM.
For `COc1ccc(CNC(=O)NC2CC3(C2)CN(C(=O)c2ccc(C#N)cc2)C3)cc1` [Compound 156, 1-(2-(4-cyanobenzoyl)-2-azaspiro[3.3]heptan-6-yl)-3-(4-methoxybenzyl)urea], the “AC1.4 Human” value under setting [1] was found to be 11.0 µM. Further, under setting [2], the concentration for a half-maximal effect (EC50) was found to be 45.8 µM.

Values taken from patent US20230348369A1 (Cytokinetics, Inc., priority 2020, published 2023).
